Laboratory results taken from patent US10160753B2, “Indazole compounds as IRAK4 inhibitors” (Aurigene Discovery Technologies Limited, priority 2014, dated 2018).
pIC50: −log10 of the molar value. Counter-ions that a name gives are not always drawn.

The compounds below were run against T1, recombinant IRAK-4 kinase (Homo sapiens, UniProt Q9NWZ3) (assay: IRAK-4 Biochemical Assay (TR-FRET)). Details: 30 min pre-incubation, 100 nM Biotin Histone H3, 20 μM ATP, read-out: IC50 values for IRAK4 activity.
T1 construct: purchased Millipore, USA
T1 sequence (Q9NWZ3 1-460): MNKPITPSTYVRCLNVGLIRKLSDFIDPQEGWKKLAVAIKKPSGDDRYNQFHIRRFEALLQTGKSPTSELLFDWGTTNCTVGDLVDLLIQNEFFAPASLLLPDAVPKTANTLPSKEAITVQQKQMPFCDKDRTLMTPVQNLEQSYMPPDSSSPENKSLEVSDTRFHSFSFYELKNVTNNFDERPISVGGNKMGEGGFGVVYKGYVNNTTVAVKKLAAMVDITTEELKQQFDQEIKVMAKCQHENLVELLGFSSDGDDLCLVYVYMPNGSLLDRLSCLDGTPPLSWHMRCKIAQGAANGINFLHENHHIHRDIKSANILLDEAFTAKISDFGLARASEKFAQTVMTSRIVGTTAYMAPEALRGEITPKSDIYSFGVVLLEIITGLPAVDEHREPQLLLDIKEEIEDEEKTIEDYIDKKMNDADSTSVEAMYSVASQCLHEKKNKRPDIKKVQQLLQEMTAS

**Q.** Cn1cc2cc(NC(=O)c3coc(N4CC[C@H](O)C4)n3)c(C3CC3)cc2n1 [Example 55, (S)—N-(6-cyclopropyl-2-methyl-2H-indazol-5-yl)-2-(3-hydroxypyrrolidin-1-yl)oxazole-4-carboxamide] was tested. Which pIC50 did it give?
**A.** 7.00 to 7.30

**Q.** COCCn1ncc2cc(NC(=O)c3coc(-c4ccnc(C)c4)n3)c(N3CCC(N)CC3)cc21 [Example 108, N-(6-(4-aminopiperidin-1-yl)-1-(2-methoxyethyl)-1H-indazol-5-yl)-2-(2-methylpyridin-4-yl)oxazole-4-carboxamide hydrochloride] was tested. Which pIC50 did it give?
**A.** > 7.30

**Q.** Cn1cc2cc(NC(=O)c3cccc(Br)n3)c(N3CCCCC3)cc2n1 [Example 23, 6-bromo-N-(2-methyl-6-(piperidin-1-yl)-2H-indazol-5-yl)picolinamide] was tested. Which pIC50 did it give?
**A.** > 7.30

**Q.** How did the pIC50 turn out when Cc1cc(-c2nc(C(=O)Nc3cc4cn(C)nc4cc3N3CCCCC3)co2)ccn1 [Example 2, N-(2-methyl-6-(piperidin-1-yl)-2H-indazol-5-yl)-2-(2-methylpyridin-4-yl) oxazole-4-carboxamide] was run?
**A.** > 7.30

**Q.** Cc1cc(-c2nc(C(=O)Nc3cc4cnn(C)c4cc3C3CC3)co2)ccn1 [Example 45, N-(6-cyclopropyl-1-methyl-1H-indazol-5-yl)-2-(2-methylpyridin-4-yl)oxazole-4-carboxamide] was tested. Which pIC50 did it give?
**A.** > 7.30

**Q.** With Cc1cc(-c2nc(C(=O)Nc3cc4cn(C)nc4cc3-c3cccc(F)c3)co2)ccn1 [Example 10, N-(6-(3-fluorophenyl)-2-methyl-2H-indazol-5-yl)-2-(2-methylpyridin-4-yl)oxazole-4-carboxamide] as the compound, how does the pIC50 read?
**A.** > 7.30

**Q.** Cc1cc(-c2nc(C(=O)Nc3cc4cn(C)nc4cc3N3CCC(CO)CC3)co2)ccn1 [Example 80, N-(6-(4-(hydroxymethyl)piperidin-1-yl)-2-methyl-2H-indazol-5-yl)-2-(2-methylpyridin-4-yl)oxazole-4-carboxamide] was tested. Which pIC50 did it give?
**A.** > 7.30

**Q.** How did the pIC50 turn out when Cc1cc(-c2nc(C(=O)Nc3cc4cnn(C5CC5)c4cc3N3CCCCC3)co2)ccn1 [Example 31, N-(1-cyclopropyl-6-(piperidin-1-yl)-1H-indazol-5-yl)-2-(2-methylpyridin-4-yl)oxazole-4-carboxamide hydrochloride] was run?
**A.** > 7.30

**Q.** COCCn1nc(C)c2cc(NC(=O)c3coc(-c4ccnc(C)c4)n3)c(N3CCC(O)CC3)cc21 [Example 116, N-(6-(4-hydroxypiperidin-1-yl)-1-(2-methoxyethyl)-3-methyl-1H-indazol-5-yl)-2-(2-methylpyridin-4-yl)oxazole-4-carboxamide] was tested. Which pIC50 did it give?
**A.** > 7.30

**Q.** Cc1cc(-c2nc(C(=O)Nc3cc4cn(C)nc4cc3N3CCC(F)CC3)co2)ccn1 [Example 91, N-(6-(4-fluoropiperidin-1-yl)-2-methyl-2H-indazol-5-yl)-2-(2-methylpyridin-4-yl)oxazole-4-carboxamide hydrochloride] was tested. Which pIC50 did it give?
**A.** > 7.30

**Q.** COCCn1cc2cc(NC(=O)c3coc(-c4ccnc(C)c4)n3)c(N3CCC(CO)CC3)cc2n1 [Example 96, N-(6-(4-(hydroxymethyl)piperidin-1-yl)-2-(2-methoxyethyl)-2H-indazol-5-yl)-2-(2-methylpyridin-4-yl)oxazole-4-carboxamide] was tested. Which pIC50 did it give?
**A.** > 7.30

**Q.** Cn1cc2cc(NC(=O)c3cccc(N4CC[C@H](O)C4)n3)c(C3CC3)cc2n1 [Example 49, (S)—N-(6-cyclopropyl-2-methyl-2H-indazol-5-yl)-6-(3-hydroxypyrrolidin-1-yl)picolinamide] was tested. Which pIC50 did it give?
**A.** > 7.30

**Q.** With Cc1cc(-c2nc(C(=O)Nc3cc4cnn(C)c4cc3N3CCCCC3)co2)ccn1 [Example 3, N-(1-methyl-6-(piperidin-1-yl)-1H-indazol-5-yl)-2-(2-methylpyridin-4-yl) oxazole-4-carboxamide] as the compound, how does the pIC50 read?
**A.** > 7.30

**Q.** How did the pIC50 turn out when COCCn1ncc2cc(NC(=O)c3coc(-c4ccnc(C)c4)n3)c(N3CCC(CO)CC3)cc21 [Example 94, N-(6-(4-(hydroxymethyl)piperidin-1-yl)-1-(2-methoxyethyl)-1H-indazol-5-yl)-2-(2-methylpyridin-4-yl)oxazole-4-carboxamide] was run?
**A.** > 7.30

**Q.** With CC(O)CNc1cccc(C(=O)Nc2cc3cn(C)nc3cc2N2CCCCC2)n1 (centres unmarked) [Example 57, 6-((2-hydroxypropyl)amino)-N-(2-methyl-6-(piperidin-1-yl)-2H-indazol-5-yl)picolinamide] as the compound, how does the pIC50 read?
**A.** > 7.30

**Q.** C[C@H](O)Cn1cc(-c2cccc(C(=O)Nc3cc4cnn(C)c4cc3C3CC3)n2)cn1 [Example 46, (S)—N-(6-cyclopropyl-1-methyl-1H-indazol-5-yl)-6-(1-(2-hydroxypropyl)-1H-pyrazol-4-yl)picolinamide] was tested. Which pIC50 did it give?
**A.** 7.00 to 7.30

**Q.** With C[C@H](O)Cn1cc(-c2nc(C(=O)Nc3cc4cnn(C)c4cc3C3CC3)co2)cn1 [Example 53, (S)—N-(6-cyclopropyl-1-methyl-1H-indazol-5-yl)-2-(1-(2-hydroxypropyl)-1H-pyrazol-4-yl)oxazole-4-carboxamide] as the compound, how does the pIC50 read?
**A.** < 7.00

**Q.** How did the pIC50 turn out when Cn1cc2cc(NC(=O)c3cccc(N4CC[C@@H](N)C4)n3)c(N3CCCCC3)cc2n1 [Example 42, (R)-6-(3-aminopyrrolidin-1-yl)-N-(2-methyl-6-(piperidin-1-yl)-2H-indazol-5-yl)picolinamide] was run?
**A.** 7.00 to 7.30

**Q.** With Cc1ccc(C(=O)Nc2cc3cn(C)nc3cc2N2CCCCC2)nc1Cl [Example 24, 6-chloro-5-methyl-N-(2-methyl-6-(piperidin-1-yl)-2H-indazol-5-yl)picolinamide] as the compound, how does the pIC50 read?
**A.** > 7.30

**Q.** Cn1cc2cc(NC(=O)c3cccc(N4CC[C@H](O)C4)n3)c(N3CCCCC3)cc2n1 [Example 39, (S)-6-(3-hydroxypyrrolidin-1-yl)-N-(2-methyl-6-(piperidin-1-yl)-2H-indazol-5-yl)picolinamide] was tested. Which pIC50 did it give?
**A.** > 7.30

**Q.** How did the pIC50 turn out when CCOP(=O)(OCC)OC1CCN(c2cc3c(cnn3C)cc2NC(=O)c2coc(-c3ccnc(C)c3)n2)CC1 [Example 128, Diethyl (1-(1-methyl-5-(2-(2-methylpyridin-4-yl)oxazole-4-carboxamido)-1H-indazol-6-yl)piperidin-4-yl) phosphate] was run?
**A.** 7.00 to 7.30

**Q.** How did the pIC50 turn out when Cn1cc2cc(NC(=O)c3coc(-c4ccnc(N)c4)n3)c(N3CCC(O)CC3)cc2n1 [Example 93, 2-(2-aminopyridin-4-yl)-N-(6-(4-hydroxypiperidin-1-yl)-2-methyl-2H-indazol-5-yl)oxazole-4-carboxamide hydrochloride] was run?
**A.** > 7.30

**Q.** How did the pIC50 turn out when CN(C)c1cc(-c2nc(C(=O)Nc3cc4cn(C)nc4cc3N3CCCCC3)co2)ccn1 [Example 120, 2-(2-(dimethylamino)pyridin-4-yl)-N-(2-methyl-6-(piperidin-1-yl)-2H-indazol-5-yl)oxazole-4-carboxamide hydrochloride] was run?
**A.** > 7.30

**Q.** CC(=O)Nc1cc(-c2nc(C(=O)Nc3cc4cn(C)nc4cc3N3CCCCC3)co2)ccn1 [Example 84, 2-(2-acetamidopyridin-4-yl)-N-(2-methyl-6-(piperidin-1-yl)-2H-indazol-5-yl)oxazole-4-carboxamide] was tested. Which pIC50 did it give?
**A.** > 7.30

**Q.** How did the pIC50 turn out when Cn1ncc2cc(NC(=O)c3coc(-c4ccnc(N)c4)n3)c(N3CCC(CO)CC3)cc21 [Example 99, 2-(2-aminopyridin-4-yl)-N-(6-(4-(hydroxymethyl)piperidin-1-yl)-1-methyl-1H-indazol-5-yl)oxazole-4-carboxamide hydrochloride] was run?
**A.** > 7.30

**Q.** Cc1cc(-c2nc(C(=O)Nc3cc4cn(C)nc4cc3N3CCCC(CO)C3)co2)ccn1 (centres unmarked) [Example 82, N-(6-(3-(hydroxymethyl)piperidin-1-yl)-2-methyl-2H-indazol-5-yl)-2-(2-methylpyridin-4-yl)oxazole-4-carboxamide] was tested. Which pIC50 did it give?
**A.** > 7.30

**Q.** With Cn1cc2cc(NC(=O)c3cccc(-c4ccc(F)nc4)n3)c(N3CCCCC3)cc2n1 [Example 12, 6′-fluoro-N-(2-methyl-6-(piperidin-1-yl)-2H-indazol-5-yl)-[2,3′-bipyridine]-6-carboxamide hydrochloride] as the compound, how does the pIC50 read?
**A.** > 7.30

**Q.** How did the pIC50 turn out when COCC(=O)OC1CCN(c2cc3c(cc2NC(=O)c2coc(-c4ccnc(C)c4)n2)c(C)nn3C)CC1 [Example 106, 1-(1,3-dimethyl-5-(2-(2-methylpyridin-4-yl)oxazole-4-carboxamido)-1H-indazol-6-yl)piperidin-4-yl 2-methoxyacetate] was run?
**A.** > 7.30

**Q.** How did the pIC50 turn out when Cc1cc(-c2ccc(C(=O)Nc3cc4cn(C)nc4cc3N3CCCC(O)C3)o2)ccn1 (centres unmarked) [Example 70, N-(6-(3-hydroxypiperidin-1-yl)-2-methyl-2H-indazol-5-yl)-5-(2-methylpyridin-4-yl)furan-2-carboxamide] was run?
**A.** > 7.30

**Q.** How did the pIC50 turn out when C[C@H](O)Cn1cc(-c2cccc(C(=O)Nc3cc4cn(C)nc4cc3C3CC3)n2)cn1 [Example 47, (S)—N-(6-cyclopropyl-2-methyl-2H-indazol-5-yl)-6-(1-(2-hydroxypropyl)-1H-pyrazol-4-yl)picolinamide] was run?
**A.** > 7.30

**Q.** How did the pIC50 turn out when COCCn1ncc2cc(NC(=O)c3coc(-c4ccnc(C)c4)n3)c(N3CCC(O)CC3)cc21 [Example 75, N-(6-(4-hydroxypiperidin-1-yl)-1-(2-methoxyethyl)-1H-indazol-5-yl)-2-(2-methylpyridin-4-yl)oxazole-4-carboxamide] was run?
**A.** > 7.30

**Q.** Cc1cc(-c2nc(C(=O)Nc3cc4c(C)nn(C)c4cc3N3CCC(O)CC3)co2)ccn1 [Example 81, N-(6-(4-hydroxypiperidin-1-yl)-1,3-dimethyl-1H-indazol-5-yl)-2-(2-methylpyridin-4-yl)oxazole-4-carboxamide] was tested. Which pIC50 did it give?
**A.** > 7.30
